Laboratory results reported in PMC8213057, “Targeting ALK2: An Open Science Approach to Developing Therapeutics for the Treatment of Diffuse Intrinsic Pontine Glioma” (Journal of Medicinal Chemistry, 2020).
Values joined by “and” are separate entries in the source; they are usually repeats but may differ in a detail not shown here. Equal values may be shown once.

Key:
TRKC = TRKC (Homo sapiens, UniProt Q16288); details: 1 μM; Run 1, Run 2
NEK3 = target: T1, NEK3 (Homo sapiens, UniProt P51956); assay: biochemical; details: read-out: % enzyme activity, 1 μM; Run 1, Run 2
T1 sequence (P51956 1-506): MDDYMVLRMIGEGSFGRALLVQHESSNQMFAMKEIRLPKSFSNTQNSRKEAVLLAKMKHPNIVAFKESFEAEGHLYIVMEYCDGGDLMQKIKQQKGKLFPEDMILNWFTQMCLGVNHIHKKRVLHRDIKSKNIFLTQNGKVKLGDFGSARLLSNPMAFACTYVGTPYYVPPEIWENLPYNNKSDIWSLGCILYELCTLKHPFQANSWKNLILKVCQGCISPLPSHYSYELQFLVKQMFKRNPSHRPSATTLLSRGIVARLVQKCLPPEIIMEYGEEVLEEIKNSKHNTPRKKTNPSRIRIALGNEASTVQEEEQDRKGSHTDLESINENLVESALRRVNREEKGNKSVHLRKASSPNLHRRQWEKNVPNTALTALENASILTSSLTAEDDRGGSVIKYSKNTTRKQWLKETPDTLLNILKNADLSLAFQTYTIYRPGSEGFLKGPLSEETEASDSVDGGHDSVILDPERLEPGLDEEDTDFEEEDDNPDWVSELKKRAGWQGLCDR

RON/MST1R = RON/MST1R (Homo sapiens, UniProt Q04912); details: 1 μM; Run 1, Run 2
ULK1 = target: T2, ULK1 (Homo sapiens, UniProt O75385); assay: biochemical; details: read-out: % enzyme activity, 1 μM; Run 1, Run 2
T2 sequence (O75385 1-1050): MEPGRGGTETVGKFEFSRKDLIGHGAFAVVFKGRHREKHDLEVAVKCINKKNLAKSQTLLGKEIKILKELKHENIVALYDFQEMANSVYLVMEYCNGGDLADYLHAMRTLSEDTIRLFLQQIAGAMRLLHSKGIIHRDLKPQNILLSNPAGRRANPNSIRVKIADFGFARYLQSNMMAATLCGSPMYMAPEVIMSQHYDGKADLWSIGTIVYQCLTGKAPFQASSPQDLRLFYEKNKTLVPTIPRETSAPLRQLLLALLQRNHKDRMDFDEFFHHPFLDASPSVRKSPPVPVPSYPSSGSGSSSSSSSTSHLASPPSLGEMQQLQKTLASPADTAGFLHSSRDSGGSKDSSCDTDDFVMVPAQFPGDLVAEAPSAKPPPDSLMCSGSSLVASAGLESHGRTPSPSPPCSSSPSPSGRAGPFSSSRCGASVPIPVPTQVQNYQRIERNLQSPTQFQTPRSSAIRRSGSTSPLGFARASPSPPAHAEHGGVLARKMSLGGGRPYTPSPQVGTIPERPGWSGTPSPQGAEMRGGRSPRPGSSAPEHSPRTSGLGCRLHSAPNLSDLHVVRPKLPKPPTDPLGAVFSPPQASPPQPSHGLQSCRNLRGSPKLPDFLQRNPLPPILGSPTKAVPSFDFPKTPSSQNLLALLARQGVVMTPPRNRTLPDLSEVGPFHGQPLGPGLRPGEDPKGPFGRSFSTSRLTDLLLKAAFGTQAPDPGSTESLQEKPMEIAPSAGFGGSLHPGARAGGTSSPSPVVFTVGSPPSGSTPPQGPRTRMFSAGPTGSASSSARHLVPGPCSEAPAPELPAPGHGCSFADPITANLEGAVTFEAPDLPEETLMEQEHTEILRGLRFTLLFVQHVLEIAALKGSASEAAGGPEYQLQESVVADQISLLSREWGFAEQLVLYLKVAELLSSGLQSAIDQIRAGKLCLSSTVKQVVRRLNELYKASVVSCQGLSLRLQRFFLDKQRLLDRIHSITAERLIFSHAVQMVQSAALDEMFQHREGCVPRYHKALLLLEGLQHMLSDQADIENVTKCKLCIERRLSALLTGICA

GLK/MAP4K3 = target: T3, GLK/MAP4K3 (Homo sapiens, UniProt Q8IVH8); details: 1 μM; Run 1, Run 2
T3 sequence (Q8IVH8 1-894): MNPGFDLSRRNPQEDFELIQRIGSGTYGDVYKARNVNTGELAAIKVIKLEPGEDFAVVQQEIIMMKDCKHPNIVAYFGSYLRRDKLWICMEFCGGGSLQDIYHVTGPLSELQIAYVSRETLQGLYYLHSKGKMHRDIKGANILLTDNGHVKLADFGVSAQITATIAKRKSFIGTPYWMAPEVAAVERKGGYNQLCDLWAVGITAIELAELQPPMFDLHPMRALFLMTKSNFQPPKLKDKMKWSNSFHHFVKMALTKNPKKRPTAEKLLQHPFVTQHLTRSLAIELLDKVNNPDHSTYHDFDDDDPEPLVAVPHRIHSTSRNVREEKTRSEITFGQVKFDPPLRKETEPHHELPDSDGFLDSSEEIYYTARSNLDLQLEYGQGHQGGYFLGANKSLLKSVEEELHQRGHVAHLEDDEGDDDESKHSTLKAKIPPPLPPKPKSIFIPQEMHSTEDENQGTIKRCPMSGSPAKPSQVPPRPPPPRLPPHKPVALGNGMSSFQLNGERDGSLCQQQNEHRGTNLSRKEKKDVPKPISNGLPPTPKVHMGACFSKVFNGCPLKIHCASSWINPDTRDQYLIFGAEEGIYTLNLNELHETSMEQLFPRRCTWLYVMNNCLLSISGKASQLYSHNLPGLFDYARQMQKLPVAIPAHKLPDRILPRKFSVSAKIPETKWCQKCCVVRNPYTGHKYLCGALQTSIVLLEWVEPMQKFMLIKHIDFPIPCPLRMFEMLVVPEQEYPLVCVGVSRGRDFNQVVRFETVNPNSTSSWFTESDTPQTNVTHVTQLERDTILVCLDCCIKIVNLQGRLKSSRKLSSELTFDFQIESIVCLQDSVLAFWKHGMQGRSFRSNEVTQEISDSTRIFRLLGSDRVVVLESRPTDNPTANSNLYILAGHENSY

Sequence of RON/MST1R (Q04912 25-1400): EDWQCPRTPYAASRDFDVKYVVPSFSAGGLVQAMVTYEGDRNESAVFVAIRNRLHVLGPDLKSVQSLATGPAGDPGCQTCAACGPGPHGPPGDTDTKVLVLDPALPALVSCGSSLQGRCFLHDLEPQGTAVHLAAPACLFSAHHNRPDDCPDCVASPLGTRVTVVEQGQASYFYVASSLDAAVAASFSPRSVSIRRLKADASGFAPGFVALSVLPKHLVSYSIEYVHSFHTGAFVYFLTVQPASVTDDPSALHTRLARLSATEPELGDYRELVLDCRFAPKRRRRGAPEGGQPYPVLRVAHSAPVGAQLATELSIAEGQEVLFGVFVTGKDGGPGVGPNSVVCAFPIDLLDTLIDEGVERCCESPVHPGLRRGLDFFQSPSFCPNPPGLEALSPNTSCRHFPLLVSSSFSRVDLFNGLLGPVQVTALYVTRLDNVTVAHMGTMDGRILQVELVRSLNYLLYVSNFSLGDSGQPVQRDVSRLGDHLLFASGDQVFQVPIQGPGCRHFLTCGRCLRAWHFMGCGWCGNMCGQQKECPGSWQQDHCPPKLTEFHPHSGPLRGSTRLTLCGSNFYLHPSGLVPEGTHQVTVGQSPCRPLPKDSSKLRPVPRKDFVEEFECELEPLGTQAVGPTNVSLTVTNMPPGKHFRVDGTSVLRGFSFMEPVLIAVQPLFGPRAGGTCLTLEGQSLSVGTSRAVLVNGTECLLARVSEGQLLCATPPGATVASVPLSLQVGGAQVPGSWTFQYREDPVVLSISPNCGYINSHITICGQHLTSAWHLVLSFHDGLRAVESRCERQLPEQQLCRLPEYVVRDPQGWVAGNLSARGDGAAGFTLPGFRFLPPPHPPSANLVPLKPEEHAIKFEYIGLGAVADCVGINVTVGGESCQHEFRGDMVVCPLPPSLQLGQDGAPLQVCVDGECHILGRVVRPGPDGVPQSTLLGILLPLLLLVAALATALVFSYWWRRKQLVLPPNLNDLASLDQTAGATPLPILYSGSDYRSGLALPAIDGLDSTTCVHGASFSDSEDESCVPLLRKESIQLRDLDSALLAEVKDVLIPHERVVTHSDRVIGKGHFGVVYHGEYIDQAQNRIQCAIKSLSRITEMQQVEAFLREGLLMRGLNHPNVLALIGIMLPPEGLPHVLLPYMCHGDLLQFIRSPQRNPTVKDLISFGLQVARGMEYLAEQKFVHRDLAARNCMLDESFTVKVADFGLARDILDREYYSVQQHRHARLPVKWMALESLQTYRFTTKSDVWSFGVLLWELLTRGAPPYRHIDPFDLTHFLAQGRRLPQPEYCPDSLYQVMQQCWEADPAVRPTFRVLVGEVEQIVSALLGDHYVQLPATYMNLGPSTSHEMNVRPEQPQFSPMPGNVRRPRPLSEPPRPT
Sequence of TRKC (Q16288 32-839): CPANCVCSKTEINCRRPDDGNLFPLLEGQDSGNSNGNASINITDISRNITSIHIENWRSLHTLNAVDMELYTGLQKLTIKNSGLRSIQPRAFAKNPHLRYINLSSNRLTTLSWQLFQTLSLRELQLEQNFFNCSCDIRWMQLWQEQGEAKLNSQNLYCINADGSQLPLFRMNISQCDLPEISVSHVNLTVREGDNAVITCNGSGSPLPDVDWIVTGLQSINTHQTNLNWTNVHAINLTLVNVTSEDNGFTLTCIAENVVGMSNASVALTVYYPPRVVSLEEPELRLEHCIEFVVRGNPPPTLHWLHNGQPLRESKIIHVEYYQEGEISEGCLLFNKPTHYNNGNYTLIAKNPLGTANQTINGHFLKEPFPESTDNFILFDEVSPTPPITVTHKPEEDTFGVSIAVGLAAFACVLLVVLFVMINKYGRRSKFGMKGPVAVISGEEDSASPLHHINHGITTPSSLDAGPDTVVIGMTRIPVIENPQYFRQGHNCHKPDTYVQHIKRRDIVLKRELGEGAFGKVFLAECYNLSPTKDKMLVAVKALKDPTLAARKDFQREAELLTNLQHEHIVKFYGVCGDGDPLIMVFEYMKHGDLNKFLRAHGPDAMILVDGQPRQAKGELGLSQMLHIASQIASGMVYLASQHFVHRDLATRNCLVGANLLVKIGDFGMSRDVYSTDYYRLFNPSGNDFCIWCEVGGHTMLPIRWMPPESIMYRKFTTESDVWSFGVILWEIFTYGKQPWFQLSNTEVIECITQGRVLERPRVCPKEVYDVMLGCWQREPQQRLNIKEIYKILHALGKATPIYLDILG

For `COc1cc(-c2cncc(-c3ccc(N4CCN(C)CC4)cc3)c2C)cc(F)c1C(N)=O` [Compound 26a, 2-Fluoro-6-methoxy-4-(4-methyl-5-(4-(4-methylpiperazin-1-yl)phenyl)pyridin-3-yl)benzamide], the “% enzyme activity” value (TRKC) was 101.44%, the remaining activity at 1 µM (NEK3) was 88.3% and the “% enzyme activity” value (RON/MST1R) was 97.00%. The remaining activity at 1 µM (ULK1) was 84.7%, the % enzyme activity at 1 μM (ARAF) was 29.3% and 28.8% and the “% enzyme activity” value (GLK/MAP4K3) was 88.16%.

With `COc1cc(-c2cncc(-c3ccc(N4C[C@@H](C)N(C)[C@@H](C)C4)cc3)c2C)cc(F)c1C(N)=O` [Compound 26c, 2-Fluoro-6-methoxy-4-(4-methyl-5-(4-((3R,5S)-3,4,5-trimethylpiperazin-1-yl)phenyl)pyridin-3-yl)benzamide] the “% enzyme activity” value (TRKC) was 97.50%, the remaining activity at 1 µM (NEK3) was 96.2% and the “% enzyme activity” value (RON/MST1R) was 104.29%. For the same compound, the remaining activity at 1 µM (ULK1) was 89.8%, the % enzyme activity at 1 μM (ARAF) was 48.1% and 43.3% and the “% enzyme activity” value (GLK/MAP4K3) was 88.71%.
